{
  "source": "patent US8394391B2",
  "about": "“Drug delivery vehicle that mimics viral properties” (University of Utah Research Foundation, priority 2007, dated 2013)",
  "assay_type_in_all_cases": "cell-based, human",
  "key": {"A2780/AD cells [1]": {"tested_on": "A2780/AD cells", "test": "Migration to neighboring cells in co-culture (confocal slice images)", "conditions": "for secondary infection of co-cultured untreated cells: 20 hours co-culture", "description": "Experiments were conducted to verify migration of virogels to neighboring cells. Cells grown on glass slide fragments (“plates”) (1×1 cm) were pre-treated with free DOX (10 μg/ml) or equivalent DOX-loaded virogels or NPs (controls), E. S. Lee, K. Na & Y. H. Bae, Polymeric micelle for tumor pH and folate-mediated targeting, 91 J. Control. Release 103-113 (2003)) for 4 hours. These pretreated cells (A cells) were washed with PBS (pH 7.4) and co-cultured with fresh cells (B-0 cells) on new glass slide fragments for 20 hours in fresh culture medium. Co-culturing was carried out by placing a plate containing A cells and a plate containing B-0 cells next to each other, but separated by 1 mm, in a culture dish such that the A cells and B-0 cells continuously shared fresh culture medium. The A cells served as a potential source for migration of virogels, and the B-0 cells were a potential site for secondary virogel infection.\nAfter the B-0 cells were co-cultured with A cells for 20 hours, such B-0 cells were redesignated as B-1 cells. B-1 cells were then withdrawn from the culture dish and were co-cultured with fresh cells on new glass slide fragments for 20 hours in fresh culture medium. These fresh cells that had been co-cultured with B-1 cells were termed B-2 cells. These B-2 cells were then also withdrawn and co-cultured with fresh cells on new glass slide fragments for 20 hours in fresh culture medium. These fresh cells that had been co-cultured with B-2 cells were termed B-3 cells. Confocal slice images were obtained, as described above, for observing fluorescent DOX in cells. To evaluate the effect of DOX on virogel migration, blank virogels (50 μg/ml) were tested using the same procedure. FITC-labeling (Example 2) was used to visualize the blank virogels."}, "A2780/AD cells [2]": {"tested_on": "A2780/AD cells", "test": "MTT cell cytotoxicity, drug-resistant A2780/AD cells", "conditions": "DOX equivalent 5 μg/ml, 48 hours, pH 7.4", "description": "(§1) A2780 and A2780/AD cells suspended in RPMI 1640 medium (200 μl) were seeded in a 96-well plate and cultured for 24 hours before testing. Free DOX (5 μg/ml) or equivalent DOX-loaded samples (virogels and control NPs) were added to the medium-removed 96-well plate for cell cytotoxicity tests. The pH of the culture medium was adjusted to pH 7.4 or pH 6.8 for 48 hours during the test, as described in A. Patchornik et al., supra. Cell cytotoxicity was measured using the tetrazolium salt MTT assay. E. S. Lee, K. Na & Y. H. Bae, 5 Nano Lett. 325-329 (2005); E. S. Lee, K. Na & Y. H. Bae, 103 J. Control. Release 405-418 (2005)."}, "A2780 cells": {"tested_on": "A2780 cells", "test": "MTT cell cytotoxicity, A2780 cells", "conditions": "drug-sensitive A2780; DOX equivalent 5 μg/ml; 48 hours; pH 7.4", "description": "as §1"}},
  "data": [
    {"smiles": "COc1cccc2c1C(=O)c1c(O)c3c(c(O)c1C2=O)C[C@@](O)(C(=O)CO)C[C@@H]3O[C@H]1C[C@H](N)[C@H](O)[C@H](C)O1", "note": "[free DOX, doxorubicin]", "values": [
      {"measurement": "distribution of fluorescence within primary treated cells (A cells)", "setting": "A2780/AD cells [1]; 4 hours pre-treatment, DOX 10 μg/ml equivalent (blank virogels 50 μg/ml, FITC)", "value": "only limited fractions of DOX diffusing into cells"},
      {"measurement": "migration from infected A2780/AD cells to untreated cells", "setting": "A2780/AD cells [1]; FIG. 7 legend, overall", "value": "no such migration"},
      {"measurement": "secondary infection of co-cultured untreated cells", "setting": "A2780/AD cells [1]; first cycle, B-1 cells", "value": "No further cell effects"},
      {"measurement": "secondary infection of co-cultured untreated cells", "setting": "A2780/AD cells [1]; second cycle, B-2 cells", "value": "No further cell effects"},
      {"measurement": "secondary infection of co-cultured untreated cells", "setting": "A2780/AD cells [1]; third cycle, B-3 cells", "value": "No further cell effects"},
      {"measurement": "viability", "setting": "A2780/AD cells [2]", "value": 80, "unit": "%"},
      {"measurement": "viability", "setting": "A2780 cells", "value": 30, "unit": "%"}
    ]}
  ]
}
